The source of these data is PMC10324562, “Inhibitory NKG2A^+ and absent activating NKG2C^+ NK cell responses are associated with the development of EBV^+ lymphomas” (Frontiers in Immunology, 2023).

Assay [1] concerns the target T1, HLA-E on the surface of Raji cells (Homo sapiens, UniProt P13747).
T1 construct: host or cells: Raji cells
In words: HLA-E stabilisation assay (flow-cytometry). The assay is classed as cell-based. Particulars: HLA-E*0101/0101 Raji cells transfected with peptide, HLA-E surface expression after 16h by flow-cytometry; three independent replicates; Figure 1E; read-out: HLA-E upregulation (EC50). Here is the method:
For the HLA-E stabilization experiments, HLA-E*0101/0101-encoding Raji cells (German Collection of Microorganisms and Cell Cultures) were maintained in 90% RPMI 1640 + 10% heat-inactivated FCS (Thermo-Fisher). The cells were individually transfected with indicated concentrations of the LMP-1 peptides (Peptides&Elephants) using the Pierce Protein Transfection Reagent according to the manufacturer’s instructions (Thermo-Fisher). After 16h, the cells were either fixed and analyzed for the HLA-E expression by flow-cytometry as described below, or washed once with Opti-MEM I Reduced Serum Medium (Gibco) and subsequently used in NKG2A^+ NK cell inhibition experiments.
The following conjugated mouse anti-human mAB were used for flow-cytometry: PE-CD19 (4G7), BV421-CD56 (NCAM 16.2), BV510-NKG2A (131411), PE-CD71 (M-A712) (all: BD Biosciences), AF647-NKG2C (134591, R&D Systems), APC-HLA/E (3D12) (Biolegend). Dead cells were identified using 7-AAD, LIVE/DEAD Fixable Green or Near-IR Dead Cell Stain Kit (both: Thermo-Scientific). Flow-cytometry analysis was performed on a FACSCanto2 platform and FACSDiva Version 10.7.2 (BD).
Figure 1 LMP-1-derived peptides are associated with the development of EBV^+ lymphomas and inhibit NKG2A^+ NK cells. (A–D) Distribution of LMP-1 variants in patients with (A) asymptomatic reactivations (N=96), (B) symptomatic reactivations (N=96), (C) EBV^+HL (N=25), (D) EBV^+nHL (N=38). Fractions represent the relative frequency of the LMP-1 peptide GGDPHLPTL, GSDPHLPTL, GGDPHLPPL, GGDPPLPTL, GCDPHLPTL, GIDPHLPTL, GAGPHLPTL, GGDTPLPTL, GDDPHLPTL, GGDPHVPTL and GTDPHLPTL variants. ^+ The frequency of the LMP-1 variants was compared to the asymptomatic cohort by the Chi^2 Test. (E, F) HLA-E stabilisation assay. (E) HLA-E stabilisation assay: Raji cells were incubated with indicated concentrations of the positive control (VMAPRTLFL) or the LMP-1 peptide-derived GGDPHLPTL, GSDPHLPTL, GGDPHLPPL, GGDPPLPTL, GCDPHLPTL, GIDPHLPTL, GAGPHLPTL, GGDTPLPTL, GDDPHLPTL, GGDPHVPTL and GTDPHLPTL variants. The HLA-E surface expression was then assessed after 16h of co-culture by flow-cytometry. Plots represent the mean ( ± SD) of three independent replicates. Each peptide was compared to the positive control using RM one-way ANOVA (with the Geisser-Greenhouse correction). (F) NKG2A^+NKG2C^- NK cell inhibition assay: Raji cells were incubated with indicated concentrations of the positive control (VMAPRTLFL) or the LMP-1 peptide-derived GGDPHLPTL, GSDPHLPTL, GGDPHLPPL, GGDPPLPTL, GCDPHLPTL, GIDPHLPTL, GAGPHLPTL, GGDTPLPTL, GDDPHLPTL, GGDPHVPTL and GTDPHLPTL variants and were then co-cultured with pre-activated NKG2A^+NKG2C^- NK cells from 12 blood donors. Plots represent the mean ( ± SD) of 12 independent replicates. Each peptide was compared to the positive control using RM one-way ANOVA (with the Geisser-Greenhouse correction). p < 0.05 was considered significant. *p < 0.05; **p < 0.01; ***p < 0.001. EBV^+HL, EBV^+ Hodgkin lymphoma, EBV^+nHL, EBV^+ non-Hodgkin lymphoma, Pos. Ctrl., positive control. TEXT PRINTED IN THE PICTURE: (E) Pos. Ctrl.: 81.4 μM | (E) GTDPHLPTL: 167.7 μM | (E) GGDPHLPTL: 162 μM | (E) GGDPPLPTL: 153.8 μM | (E) GIDPHLPTL: 313.9 μM | (E) GCDPHLPTL: 304.8 μM | (E) GDDPHLPTL: 370.3 μM | (E) GAGPHLPTL: 317.1μM | (E) GGDPHVPTL: 759 μM | (E) GSDPHLPTL: 613.9 μM | (E) GGDPHLPPL: 682 μM | (E) GGDTPLPTL: 1110 μM | (F) Pos. […] The y-axis titles are 'HLA-E upregulation' (E) and 'NKG2A+NKG2C- NK cell inhibition' (F). / Panels A–D: the percentages and counts (e.g. 44.8%, 43/96) are frequencies of peptide variants in patient cohorts, not results for a substance, and are left out.

The test system of assay [2] is EBV-infected K562-CR2-HLA-E*0103/0103 cells. In words: Cell proliferation assay, K562-CR2-HLA-E*0103/0103. Type of assay: cell-based, human. To be noted: GGDPHLPTL-pulsed (300 µM) K562-CR2-HLA-E*0103/0103 with NKG2A+NKG2C- or NKG2A+NKG2C+ NK cells, Monalizumab 10 µg/mL; Figure 2H. Here is the method: (§1) For the cell proliferation assays MHC-I-deficient K562-CR2, K562-CR2-HLA-E*0103/0103 or K562-CR2-HLA-E*0101/0101 target cells were established and maintained as described before ([16]). The cells were then always infected with the marmoset B-lymphoblastoid cell line B95-8 derived EBV-strain, which encodes for the GGDPHLPTL LMP-1 variant, (MOI=1) ([16]) for 3 days. Sorted NKG2C^-NKG2A^+, NKG2C^+NKG2A^- and NKG2C^+NKG2A^+ NK cells were used as effector cells and were quickly thawed at 37°C, washed, and pre-activated overnight in RPMI, 10% FCS, 1% L-glutamine, 10 ng/ml IL-12 and 100 ng/ml IL-18 at 37°C. The NK cells were then harvested by centrifugation at 400xg for 5 minutes and washed once with Opti-MEM. […] All cells were then harvested, fixed with the FIX & PERM Cell Fixation & Cell Permeabilization Kit (Thermo-Scientific) and analysed by flow-cytometry, as described below. […]
(§2) Figure 2 HLA-E variants are associated with the development of EBV^+ lymphomas and inhibit NKG2A^+ NK cells. […] (E) Enriched NKG2A^+NKG2C^- NK cells were co-cultured with EBV-infected K562-CR2, K562-CR2-HLA-E*0103/0103 or K562-CR2-HLA-E*0101/0101 cells and were subsequently analyzed by flow-cytometry. […] Viable EBV-infected K562-CR2-HLA-E*0103/0103 or K562-CR2-HLA-E*0101/0101 cells or enriched NKG2A^+NKG2C^- NK cells was subsequently analysed by flow-cytometry. […]

Assay [3] relates to EBV-infected K562-CR2-HLA-E*0101/0101 cells. In words: Cell proliferation assay, K562-CR2-HLA-E*0101/0101. Type of assay: cell-based, human. Particulars: GGDPHLPTL-pulsed (300 µM) K562-CR2-HLA-E*0101/0101 with NKG2A+NKG2C- or NKG2A+NKG2C+ NK cells, Monalizumab 10 µg/mL; Figure 2H. Here is the method: as §1, §2

Ends that are not written are not given here.

As for GAGPHLPTL [GAGPHLPTL], the EC50 in assay [1] was found to be 317 µM. Regarding GCDPHLPTL [GCDPHLPTL], the concentration for a half-maximal effect (EC50) in assay [1] was found to be 305 µM. In the case of GDDPHLPTL [GDDPHLPTL], in assay [1], the EC50 amounted to 370 µM. Consider GGDPHLPPL [GGDPHLPPL], for which the EC50 in assay [1] worked out at 682 µM. Same read-out and setting: with GGDPHLPTL [GGDPHLPTL] the figure was 162 µM; with GGDPHVPTL [GGDPHVPTL], 759 µM. As to GGDPPLPTL [GGDPPLPTL], the EC50 in assay [1] is 154 µM. Same read-out and setting: then GGDTPLPTL [GGDTPLPTL], with 1110 µM; and GIDPHLPTL [GIDPHLPTL], with 314 µM.

For GSDPHLPTL [GSDPHLPTL], in assay [1], the EC50 came to 614 µM. Regarding GTDPHLPTL [GTDPHLPTL], the concentration for a half-maximal effect (EC50) in assay [1] was found to be 168 µM.

B1: Monalizumab: α-NKG2A blocking monoclonal antibody (Innate Pharma) (antibody, chains of the INN, looked up, V domains shown)
VH: QVQLVQSGAEVKKPGASVKVSCKASGYTFTSYWMNWVRQAPGQGLEWMGRIDPYDSETHYAQKLQGRVTMTTDTSTSTAYMELRSLRSDDTAVYYCARGGYDFDVGTLYWFFDVWGQGTTVTVSS
VL: DIQMTQSPSSLSASVGDRVTITCRASENIYSYLAWYQQKPGKAPKLLIYNAKTLAEGVPSRFSGSGSGTDFTLTISSLQPEDFATYYCQHHYGTPRTFGGGTKVEIK
Consider B1, for which the “EBV-infected K562-CR2 cell dissemination on blocking of NKG2A” value in assay [2] and in assay [3] was “reduction” in each case.
